These results are taken from patent US8183236B2, “Compounds with HIV-1 integrase inhibitory activity and use thereof as anti-HIV/AIDS therapeutics” (University of Southern California, priority 2007, dated 2012).

Experiment [1] addresses T1, HIV-1 integrase (wild-type IN) (Human immunodeficiency virus type 1 group M subtype B, UniProt P12497). The experiment in a line: HIV-1 integrase 3′-processing assay (32P-labeled 21-mer, gel). Format: biochemical. From the text: (§1) The oligonucleotides 21 top, 5′-[…]-3′ (SEQ ID NO:1) and 21 bot, 5′-[…]-3′ (SEQ ID NO:2) were purchased from Norris Cancer Center Core Facility (University of Southern California) and purified by UV shadowing on polyacrylamide gel. To analyze the extent of 3′-processing and strand transfer using 5′-end labeled substrates, 21 top was 5′-end labeled using T4 polynucleotide kinase (Epicentre, Madison, Wis.) and γ [^32P]-ATP (Amersham Biosciences or ICN). The kinase was heat-inactivated and 21 bot was added in 1.5-molar excess. The mixture was heated at 95° C., allowed to cool slowly to room temperature, and run through a spin 25 mini-column (USA Scientific) to separate annealed double-stranded oligonucleotide from unincorporated material.
(§2) To determine the extent of 3′-processing and strand transfer, wild-type IN was preincubated at a final concentration of 200 nM with the inhibitor in reaction buffer (50 mM NaCl, 1 mM HEPES, pH 7.5, 50 μM EDTA, 50 μM dithiothreitol, 10% glycerol (w/v), 7.5 mM MnCl2, 0.1 mg/ml bovine serum albumin, 10 mM 2-mercaptoethanol, 10% dimethyl sulfoxide, and 25 mM MOPS, pH 7.2) at 30° C. for 30 min. Then, 20 nM of the 5′-end ^32P-labeled linear oligonucleotide substrate was added, and incubation was continued for an additional one hour. Reactions were quenched by the addition of an equal volume (16 μl) of loading dye (98% deionized formamide, 10 mM EDTA, 0.025% xylene cyanol and 0.025% bromophenol blue). An aliquot (5 μl) was electrophoresed on a denaturing 20% polyacrylamide gel (0.09 M tris-borate pH 8.3, 2 mM EDTA, 20% acrylamide, 8M urea).
(§3) Gels were dried, exposed in a PhosphorImager cassette, and analyzed using a Typhoon 8610 Variable Mode Imager (Amersham Biosciences) and quantitated using ImageQuant 5.2. Percent inhibition (% I) was calculated using the following equation: %I=100×[1−(D−C)/(N−C)]
(§4) where C, N, and D are the fractions of 21-mer substrate converted to 19-mer (3′-processing product) or strand transfer products for DNA alone, DNA plus IN, and IN plus drug, respectively. The IC50 values were determined by plotting the logarithm of drug concentration versus percent inhibition to obtain concentration that produced 50% inhibition. […]

In experiment [2] the target is T1, HIV-1 integrase (wild-type IN). Kind of experiment: HIV-1 integrase strand transfer assay (32P-labeled 21-mer, gel). Format: biochemical.
From the text: as §1, §2, §3, §4

Where [3] appears, read: unit inferred, read-out: IN inhibition activity 3′-processing.
Where [4] appears, read: unit inferred, read-out: IN inhibition activity Strand transfer.
Setting [5] is: wild-type IN 200 nM, 7.5 mM MnCl2, read-out: Inhibition of IN Catalytic Activities IC50 (μM) 3′-processing.
Where [6] appears, read: wild-type IN 200 nM, 7.5 mM MnCl2, read-out: Inhibition of IN Catalytic Activities IC50 (μM) Strand Transfer.

For the compound `Cn1c(SCC(=O)NNC(=O)c2ccccc2O)nnc1-c1ccccc1` [AS9A1], the IC50 in experiment [1] (setting [3]) stood at 64 ± 4 µM; in experiment [2] (setting [4]), 58 ± 2 µM.
Take `COc1ccc(-n2c(Cc3ccccc3)nnc2SCC(=O)NNC(=O)c2ccccc2O)cc1` [AS9A2]: the IC50 is 18 ± 1 µM in experiment [1] (setting [3]) and 17 ± 1 µM in experiment [2] (setting [4]).
On to `Cc1cc(C)nc(SCc2nnc(SCC(=O)NNC(=O)c3ccccc3O)n2-c2ccccc2)n1` [AS9A3], for which the IC50 in experiment [1] (setting [3]) was 51 ± 5 µM; in experiment [2] (setting [4]), 27 ± 8 µM.
As for `O=C(CSc1nnc(Cc2ccccc2)n1C1CCCCC1)NNC(=O)c1ccccc1O` [AS9A4], the IC50 worked out at 21 ± 2 µM in experiment [1] (setting [3]) and 17 ± 1 µM in experiment [2] (setting [4]).
The corresponding values for `Cc1cc(C)nc(SCc2nnc(SCC(=O)NNC(=O)c3ccccc3O)n2C)n1` [AS9A5] are below 100 µM and below 100 µM.
The corresponding values for `COc1ccccc1-n1c(SCC(=O)NNC(=O)c2ccccc2O)nnc1-c1ccccc1O` [AS9A6] are 8 ± 1 µM and 6 ± 1 µM.
`O=C(CSc1nnc(-c2ccncc2)n1-c1ccc(F)cc1)NNC(=O)c1ccccc1O` [AS9A7]: the IC50 in experiment [1] (setting [3]) was 49 ± 1 µM; in experiment [2] (setting [4]) it was 31 ± 2 µM.
For `O=C(CSc1nnnn1-c1ccccc1)NNC(=O)c1ccc(O)cc1O` [AS9A8], the results for the IC50 in experiment [1] (setting [3]) and in experiment [2] (setting [4]) were 68 ± 3 µM and 61 ± 6 µM, respectively.
For the compound `O=C(CSc1nnc(-c2ccc(Cl)cc2)n1-c1ccccc1)NNC(=O)c1ccccc1O` [AS9A9], the IC50 was 11 ± 3 µM in experiment [1] (setting [3]) and 5 ± 1 µM in experiment [2] (setting [4]).
Take `COc1ccc(-c2nnc(SCC(=O)NNC(=O)c3ccccc3O)n2-c2ccccc2)cc1OC` [AS9A10]: the results for the IC50 in experiment [1] (setting [3]) and in experiment [2] (setting [4]) were 22 ± 1 µM and 21 ± 1 µM, respectively.
Consider `O=C(CSc1nnc(-c2ccccc2O)n1Cc1ccccc1)NNC(=O)c1ccccc1O` [AS9A11], for which the IC50 in experiment [1] (setting [3]) came to 15 ± 3 µM; in experiment [2] (setting [4]) it was 9 ± 2 µM.
For the compound `O=C(N/N=C/c1ccc(-c2ccc(Cl)cc2)o1)c1ccccc1` [AV15A29], in experiment [1] (setting [3]), the IC50 was above 100 µM.
Regarding `Cc1cccc(Nc2nc3nonc3nc2N/N=C/c2ccc(-c3ccccc3Cl)o2)c1C` [AV15A33], the IC50 in experiment [1] (setting [3]) was above 100 µM.
Still for that read-out and setting: to `O=C(O)c1cccc(-c2ccc(/C=N/Nc3nc(Nc4ccccc4)nc(Nc4ccccc4)n3)o2)c1` [AV15A42] belongs 89 ± 19 µM.
On to `N#C/C(=C\c1ccc(-c2cc(Cl)ccc2C(=O)O)o1)c1nc2ccccc2[nH]1` [AV15A52], for which the IC50 in experiment [2] (setting [4]) was determined as 51 µM.
Regarding `COC(=O)c1ccc(C(=O)OC)c(NC(=O)c2ccc(C)c([N+](=O)[O-])c2)c1` [Compound X19], the IC50 in experiment [1] (setting [5]) was 92 µM.
In the case of `CCOC(=O)CCc1cc(C(=O)OCC)c(CCC(=O)OCC)cc1C(=O)OCC` [Compound X35], in experiment [2] (setting [6]), the IC50 turned out to be 94 µM.
The same measure, in the same setting: to `Cc1ccc(C=C2SC(=S)N(CCC(=O)Nc3cccc(C(=O)O)c3)C2=O)cc1` [Compound X100] belongs above 100 µM.
As for `COc1ccccc1C=C1SC(=S)N(CCC(=O)Nc2ccc(O)cc2)C1=O` [Compound X118], the IC50 in experiment [1] (setting [5]) came out at 99 ± 3 µM.
On the same count and under the same terms, to `O=C(CCCN1C(=O)/C(=C/c2cccs2)SC1=S)Nc1nc2ccccc2s1` [Compound X178] belongs 98 ± 5 µM.
As for `Cc1nc(=O)c(-c2ccccc2)c(C)n1-c1ccc(C(=O)O)c(O)c1` [Compound X181], the IC50 in experiment [2] (setting [6]) was 73 ± 24 µM.
Turning to `O=C(NN1C(=O)/C(=C/c2ccc(Br)cc2)SC1=S)c1ccccc1O` [Compound X220], in experiment [2] (setting [6]), the IC50 turned out to be 27 ± 6 µM.
On to `O=C1C(=Cc2c(NCCO)nc3ccccn3c2=O)SC(=S)N1Cc1ccco1` [Compound X281], for which the IC50 in experiment [1] (setting [5]) is above 100 µM.
As to `O=C(Nc1nncs1)c1c(O)c2ccccc2n(Cc2ccccc2)c1=O` [LM33], in experiment [2] (setting [6]), the IC50 was 36 µM.
Same read-out and setting: the figure for `Nc1nonc1-c1nc2ccccc2n1CC(=O)N/N=C/c1ccc(-c2cccc(C(=O)O)c2)o1` [NST20] is 68 µM.
For `COC(=O)C1=C(C(=O)OC)SC(=C2C(=S)C(C)(C)N(C(=O)c3cccnc3)c3ccc(C)cc32)S1` [RT25], the IC50 in experiment [1] (setting [5]) was above 100 µM.
Take `C=CCn1c(=O)c(C(=O)Nc2ccccc2OC)c(O)c2ccccc21` [XR3]: in experiment [2] (setting [6]), the IC50 was 25 µM.
Same read-out and setting: the figure for `CCn1c(=O)c(C(=O)Nc2ccccc2C(=O)OC)c(O)c2ccccc21` [XR15] is 9.5 µM.
